Measured values taken from US9073905B2, “Rock inhibitors” (Amakem NV, priority 2011, dated 2015).
Entries after “also recorded” stand apart in the source; their conditions may differ.

What was measured:
[1] = target: ROCK2 (Homo sapiens, UniProt O75116); assay: Kinase inhibition (ROCKI & ROCKII), radiometric 33P-ATP biochemical assay; details: for inhibitory activity against ROCK (in words): summary of point C1.1
Method: On-target activity against ROCK was measured in a biochemical assay, using the following reagents: Base Reaction buffer; 20 mM Hepes (pH 7.5), 10 mM MgCl2, 1 mM EGTA, 0.02% Brij35, 0.02 mg/ml BSA, 0.1 mM Na3VO4, 2 mM DTT, 1% DMSO. Required cofactors are added individually to each kinase reaction. The reaction procedure first involved the preparation of a peptide substrate in a freshly prepared reaction buffer. Required cofactors were then added to the substrate solution. ROCK (1 nM final concentration) was then delivered to the substrate solution. After gentle mix, DMSO solutions of the test compounds were added to the enzyme. Substrate mix ^33P-ATP (specific activity 0.01 μCi/μl final) was then delivered into the reaction mixture to initiate the reaction. The kinase reaction was incubated for 120 min. at room temperature. Reactions were then spotted onto P81 ion exchange paper (Whatman #3698-915). Filters were washed extensively in 0.1% Phosphoric acid. A radiometric count was then performed and IC50 values were subsequently determined.
The IC50 values obtained (in accordance with the protocol set forth above) are represented as follows: “+++” means IC50 below 0.1 μM, “++” means IC50 between 0.1 μM and 1 μM; “+” means IC50 between 1 and 10 μM and “ND” means “not determined yet”.

[2] = tested on: MLC-T18/S19 phosphorylation; assay: Myosin light chain phosphorylation assay (ELISA) in A7r5 cells; format: cell-based, Rat; details: for functional activity in the MLC phosphorylation assay (in words): FIG. 1; for IC50 / EC50: Rattus norvegicus; for IC50: A7R5, comparison table, MLC phosphorylation, read-out: IC50 MLC-PP; for EC50: MLC-T18/S19 phosphorylation, A7r5 cells, serum-free medium
Method: Rat smooth muscle cell line A7r5 is used. The endogenous expression of ROCK esults in a constitutive phosphorylation of the regulatory myosin light chain at T18/S19. A7r5 cells were plated in DMEM supplemented with 10% FCS in multiwall cell culture plates. After serum starvation overnight, cells were incubated with compounds in serum-free medium.
Quantification of MLC-T18/S19 phosphorylation is assesses in 96 well-plates via ELISA using a phspho-MLC-T18/S19 specific antibody and a secondary detection antibody. Raw data were converted into percent substrate phosphorylation relative to high controls, which were set to 100%.
EC50 values were determined using GraphPad Prism 5.01 software using a nonlinear regression curve fit with variable hill slope.
The EC50 values obtained (in accordance with the protocols set forth above) are represented as follows: “+++” means EC50 below 0.3 μM, “++” means EC50 between 0.3 μM and 1 μM; “+” means EC50 between 1 and 10 μM and “−” means EC50>10 μM.

[3] = Stability assay in mice plasma; format: in vitro ADME; details: mouse, 1 μM compound, LC-MS/MS, read-out: t½ mice plasma
Method: (§1) Compounds are incubated at a concentration of 1 μM in rat (mice or rabbit) or human plasma. Samples are taken at fixed time points and the remnant of compound is determined by LC-MS/MS after protein precipitation. Half life is expressed in minutes.

[4] = Stability assay in human plasma; format: in vitro ADME; details: 1 μM compound, LC-MS/MS, read-out: t½ human plasma
Method: as §1

[5] = Stability towards drug metabolizing enzymes in lung S9; format: in vitro ADME, human; details: for half-life at 1 μM: human
Method: A 1 μM solution of the ROCK inhibitors is incubated with a reaction mixture containing lung S9 (from smokers) as well as the cofactors NADPH, UDPGA, PAPS and GSH. Samples are collected at 0, 15, 30 and 60 minutes post incubation. Negative control samples incubated with ROCK inhibitors and S9 fraction in the absence of cofactors are run in parallel. By using LC-MS/MS analysis, the percent of ROCK compounds remaining at each time point, the metabolic half-life of the ROCK compounds (expressed in minutes) and the metabolic half-life of the control compounds are determined.

[6] = Stability in plasma, species not stated; format: in vitro ADME; details: for half-life at 1 μM: comparison table, plasma species not given, read-out: t½ Plasma; for half life in plasma (in words): point C.2.1
Method: as §1

[7] = Stability assay in rabbit aqueous humor; format: in vitro ADME; details: for half-life at 1 μM: rabbit, aqueous humor, read-out: t½ AH
Method: Compounds are incubated at a concentration of 1 μM in rabbit aqueous humor (AH). Samples are taken at fixed time points and the remnant of compound is determined by LC-MS/MS after protein precipitation. Half life is expressed in minutes.

[8] = tested on: normotensive New Zeland White rabbits; assay: Intraocular pressure (IOP) lowering in normotensive rabbits; format: in vivo, rabbit
Method: A detailed example of the IOP lowering effects of the compounds of the invention is here provided for compound 14. Compound 14 was here formulated as a 0.3% solution of pH=6.91 in Water/PEG 400 1:1.
IOP of to normotensive New Zeland White rabbits (n=3) was measured using a Tonolab tonometer, at 9h00, prior to compound administration.
At 9h30, one drop (50 μl) of the formulated solution was administered to rabbits, in the right eye (OD); while one drop (50 μl) of the vehicle solution was administered to the left eye (OS). IOP was then recorded in 1 h intervals until 17 h.

[9] = ROCK 1 nM, 120 min at room temperature
[10] = 1 μM, lung S9 from smokers, cofactors NADPH, UDPGA, PAPS, GSH
[11] = lung S9 (from smokers), text summary of point C.2.2, read-out: half-life in lung tissue

Sequence of ROCK2 (O75116 whole entry, species assumed): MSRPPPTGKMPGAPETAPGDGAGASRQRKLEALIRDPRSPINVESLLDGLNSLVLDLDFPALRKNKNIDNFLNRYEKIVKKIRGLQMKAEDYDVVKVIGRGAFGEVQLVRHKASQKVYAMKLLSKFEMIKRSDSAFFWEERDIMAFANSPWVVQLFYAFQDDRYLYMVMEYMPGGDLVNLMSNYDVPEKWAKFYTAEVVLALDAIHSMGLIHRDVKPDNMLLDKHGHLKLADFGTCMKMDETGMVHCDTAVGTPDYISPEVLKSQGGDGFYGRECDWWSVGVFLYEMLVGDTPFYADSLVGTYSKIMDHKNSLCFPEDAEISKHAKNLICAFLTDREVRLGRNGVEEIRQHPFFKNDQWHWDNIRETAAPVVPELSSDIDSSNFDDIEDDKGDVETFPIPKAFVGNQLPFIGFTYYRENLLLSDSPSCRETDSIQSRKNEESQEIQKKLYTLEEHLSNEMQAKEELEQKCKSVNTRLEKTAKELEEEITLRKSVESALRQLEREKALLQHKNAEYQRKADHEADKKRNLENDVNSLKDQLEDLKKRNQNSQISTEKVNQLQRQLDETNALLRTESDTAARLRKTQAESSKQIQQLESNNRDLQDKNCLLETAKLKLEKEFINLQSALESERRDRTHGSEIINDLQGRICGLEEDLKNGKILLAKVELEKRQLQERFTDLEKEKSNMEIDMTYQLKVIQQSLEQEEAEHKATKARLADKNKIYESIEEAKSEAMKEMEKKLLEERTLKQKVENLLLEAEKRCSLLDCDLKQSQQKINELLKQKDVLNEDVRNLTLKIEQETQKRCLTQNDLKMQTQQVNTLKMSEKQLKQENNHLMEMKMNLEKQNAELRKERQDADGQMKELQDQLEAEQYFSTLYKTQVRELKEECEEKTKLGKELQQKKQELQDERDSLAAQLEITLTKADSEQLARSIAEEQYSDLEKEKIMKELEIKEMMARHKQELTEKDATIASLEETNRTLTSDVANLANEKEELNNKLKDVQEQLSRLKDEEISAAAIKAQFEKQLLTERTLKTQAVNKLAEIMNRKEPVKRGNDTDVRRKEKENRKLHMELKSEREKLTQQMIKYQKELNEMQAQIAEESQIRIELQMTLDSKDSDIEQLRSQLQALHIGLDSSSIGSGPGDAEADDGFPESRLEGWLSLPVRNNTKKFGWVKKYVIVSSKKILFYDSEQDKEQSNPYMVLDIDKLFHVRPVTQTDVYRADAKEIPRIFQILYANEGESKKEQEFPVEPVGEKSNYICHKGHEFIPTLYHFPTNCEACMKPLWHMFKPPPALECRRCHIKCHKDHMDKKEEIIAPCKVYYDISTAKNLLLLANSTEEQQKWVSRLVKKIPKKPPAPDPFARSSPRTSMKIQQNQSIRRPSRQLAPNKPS

Compound | IC50 [1, 9] [nM] | IC50 ([1]; comparison table) [nM] | inhibitory activity against ROCK (in words) [1] | functional activity in the MLC phosphorylation assay (in words) [2] | IC50 [2] [nM] | EC50 [2] [nM] | half-life at 1 μM [3] [min] | half-life at 1 μM [4] [min] | t½ human lung S9 [5, 10] [min] | t½ lung S9 ([5]; comparison table) [min] | half-life at 1 μM [5, 11] [min] | half-life at 1 μM [6] [min] | half life in plasma (in words) [6] | half-life at 1 μM ([7]; 1 μM in rabbit aqueous humor) [min] | half-life at 1 μM ([7]; comparison table) [min] | further results
O=C(NCCSC1CCOC1=O)c1cccc(CN2CCCC(Nc3cccc4cnccc34)C2)c1 (centres unmarked) [Compound 26] | < 100 | 1.9 | strong inhibitory activity | display functional activity | 400 | 300 to 1000 | 2.5 | 5 | >240 | >240 | > 240 | < 5 | short half life | – | – | –
O=C(OCC1CCCO1)c1cccc(CN2CCCC(Nc3ccc4[nH]ncc4c3)C2)c1 (centres unmarked) [Compound 14] | < 100 | 3.4 | strong inhibitory activity | functionally active compound; also recorded: display functional activity | 240 | < 300 | – | < 5 | – | – | – | < 5 | short half life | > 120 | > 120 | half-life at 1 μM ([5]; lung S9 (from smokers), comparison table, read-out: t½ lung S9): 9 min; half-life in aqueous humor compared with plasma (in words) ([7]; text summary of point C.2.3): significantly longer half-life in aqueous humor than in plasma; time after administration until which the IOP decrease is statistically significant (P≦0.05) ([8]; 0.3% solution, one drop at 9h30, until the 14 h time point): 4.30 h; IOP decrease following administration (in words) ([8]; 0.3% solution, one drop, visible until 17 h): pronounced IOP decrease; Average IOP OD (mmHg) ([8]; 9 h, right eye (OD), prior to compound administration (baseline), n=3): 9.89 mmHg; Average IOP OD (mmHg) ([8]; 10 h, one drop (50 μl) 0.3% solution in Water/PEG 400 1:1 at 9h30, right eye (OD)): 7.67 mmHg; Average IOP OD (mmHg) ([8]; 11 h, one drop (50 μl) 0.3% solution at 9h30, right eye (OD)): 6.44 mmHg; Average IOP OD (mmHg) ([8]; 12 h, one drop (50 μl) 0.3% solution at 9h30, right eye (OD)): 6.22 mmHg; Average IOP OD (mmHg) ([8]; 13 h, one drop (50 μl) 0.3% solution at 9h30, right eye (OD)): 7.00 mmHg; Average IOP OD (mmHg) ([8]; 14 h, one drop (50 μl) 0.3% solution at 9h30, right eye (OD)): 6.44 mmHg; Average IOP OD (mmHg) ([8]; 15 h, one drop (50 μl) 0.3% solution at 9h30, right eye (OD)): 7.67 mmHg; Average IOP OD (mmHg) ([8]; 16 h, one drop (50 μl) 0.3% solution at 9h30, right eye (OD)): 7.89 mmHg; Average IOP OD (mmHg) ([8]; 17 h, one drop (50 μl) 0.3% solution at 9h30, right eye (OD)): 8.11 mmHg
COC(=O)c1cccc(NC(=O)c2cccc(CN3CCC(Nc4cccc5cnccc45)C3)c2)c1 (centres unmarked) [Compound 32] | < 100 | 25 | – | – | 160 | < 300 | – | 25 | – | >240 | – | 22 | – | > 120 | 98 | half-life at 1 μM ([5]; 1 μM, lung S9 from smokers, cofactors NADPH, UDPGA, PAPS, GSH, read-out: t½ human lung S9): > 240 min
O=C(NCCSC1CCOC1=O)c1cccc(CN2CCCC(Nc3ccc4[nH]ncc4c3)C2)c1 (centres unmarked) [Compound 28] | < 100 | – | strong inhibitory activity | display functional activity | – | 300 to 1000 | 2.2 | < 5 | >240 | – | > 240 | – | short half life | – | – | –
